# From patent US20250034153A1, “TRIAZOLOPYRIMIDINES AS A2A / A2B INHIBITORS” (Incyte Corporation, priority 2019, published 2025)
# Experiments:
# [1] = molecular target: human adenosine A2B receptor (Homo sapiens (Human), UniProt P29275); experiment: Adenosine A2B receptor cyclic AMP GS assay (Example B); assay type: cell-based; settings: HEK-293 cells expressing human A2B, agonist NECA 12 nM, cAMP accumulation (FRET); read-out: A2B_cAMP_EC50
# Experimental: Example B. Adenosine A2B Receptor Cyclic AMP GS Assay
# Stably transfected HEK-293 cells expressing the human adenosine A2B receptor (Perkin Elmer) were maintained in MEM culture medium with 10% FBS and 100 μg/ml Geneticin (Life Technologies). 18 to 24 hours prior to assay, geneticin was removed from culture. The cisbio cAMP-GS Dynamic kit utilizing the FRET (Fluorescence Resonance Energy Transfer) technology was used to measure cAMP accumulation in the cells. Compounds of the present disclosure at an appropriate concentration were mixed with 10000 cells/well in white 96 well half area plates (Perkin Elmer) for 30 min at RT gently shaking. Agonist, NECA (R&D Technologies) at 12 nM was added to each well for 60 min at RT gently shaking. Detection reagents, d2-labeled cAMP (acceptor) and anti-cAMP cryptate (donor) were added to each well for 60 min at RT gently shaking. Plates were read on Pherastar (BMG Labtech), fluorescence ratio 665/620 was calculated and EC50 determination was performed by fitting the curve of percent of control versus the log of the compound concentration using GraphPad Prism.
# Adenosine A2A = Adenosine A2A (Homo sapiens (Human), UniProt P29274); experiment: A2A Tag-lite HTRF assay (Example C); settings: Tag-lite Adenosine A2A labeled cells, Red antagonist fluorescent ligand 12.5 nM, one-site competitive binding; read-out: A2A_Ki
# Adenosine A2A, sequence (P29274 whole entry): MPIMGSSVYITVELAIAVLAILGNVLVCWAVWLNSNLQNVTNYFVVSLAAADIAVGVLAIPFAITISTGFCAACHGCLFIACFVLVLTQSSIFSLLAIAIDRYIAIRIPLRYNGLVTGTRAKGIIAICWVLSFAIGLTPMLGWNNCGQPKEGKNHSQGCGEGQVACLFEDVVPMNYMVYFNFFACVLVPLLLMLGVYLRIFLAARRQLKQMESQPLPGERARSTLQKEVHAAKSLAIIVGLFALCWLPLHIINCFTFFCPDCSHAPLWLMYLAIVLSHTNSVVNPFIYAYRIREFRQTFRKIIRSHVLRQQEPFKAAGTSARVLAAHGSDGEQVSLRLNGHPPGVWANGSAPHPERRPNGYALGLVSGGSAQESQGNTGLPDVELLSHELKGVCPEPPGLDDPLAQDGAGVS
# Experimental: Example C. A2A Tag-Lite® HTRF Assay
# Assays were conducted in black low volume 384-well polystyrene plates (Greiner 784076-25) in a final volume of 10 μL. Test compounds were first serially diluted in DMSO and 100 nl added to the plate wells before the addition of other reaction components. The final concentration of DMSO was 1%. Tag-lite® Adenosine A2A labeled cells (CisBio C1TT1A2A) were diluted 1:5 into Tag-lite buffer (CisBio LABMED) and spun 1200 g for 5 mins. The pellet was resuspended at a volume 10.4× the initial cell suspension volume in Tag-lite buffer, and Adenosine A2A Receptor Red antagonist fluorescent ligand (CisBio L0058RED) added at 12.5 nM final concentration. 10 ul of the cell and ligand mix was added to the assay wells and incubated at room temperature for 45 minutes before reading on a PHERAstar FS plate reader (BMG Labtech) with HTRF 337/620/665 optical module. Percent binding of the fluorescent ligand was calculated; where 100 nM of A2A antagonist control ZM 241385 (Tocris 1036) displaces the ligand 100% and 1% DMSO has 0% displacement. The % binding data versus the log of the inhibitor concentration was fitted to a one-site competitive binding model (GraphPad Prism version 7.02) where the ligand constant=12.5 nM and the ligand Kd=1.85 nM.
# human adenosine A2B receptor, sequence (P29275 whole entry): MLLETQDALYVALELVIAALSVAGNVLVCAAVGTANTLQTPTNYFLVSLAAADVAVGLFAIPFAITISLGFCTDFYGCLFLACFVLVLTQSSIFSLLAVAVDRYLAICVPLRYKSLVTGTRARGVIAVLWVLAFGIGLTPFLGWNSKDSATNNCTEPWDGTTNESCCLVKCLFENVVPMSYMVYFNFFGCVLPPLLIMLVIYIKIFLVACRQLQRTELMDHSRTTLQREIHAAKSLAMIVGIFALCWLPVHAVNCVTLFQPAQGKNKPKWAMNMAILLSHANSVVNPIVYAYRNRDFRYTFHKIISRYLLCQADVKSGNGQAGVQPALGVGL
SMILES,EC50 [1] [nM],Ki (Adenosine A2A) [nM]
"Cc1cccnc1CNc1nc2c(-c3ccc(=O)n(C)c3)c(-c3cccc(C#N)c3F)nc(N)n2n1 [Example 23, 3-(5-amino-8-(1-methyl-6-oxo-1,6-dihydropyridin-3-yl)-2-(((3-methylpyridin-2-yl)methyl)amino)-[1,2,4]triazolo[1,5-c]pyrimidin-7-yl)-2-fluorobenzonitrile]",10 to 100,≤ 10
"Cc1cccnc1CNc1nc2c(-c3ccc(=O)n(C)n3)c(-c3cccc(C#N)c3F)nc(N)n2n1 [Example 25, 3-(5-amino-8-(1-methyl-6-oxo-1,6-dihydropyridazin-3-yl)-2-(((3-methylpyridin-2-yl)methyl)amino)-[1,2,4]triazolo[1,5-c]pyrimidin-7-yl)-2-fluorobenzonitrile]",≤ 10,≤ 10
"COc1cc(-c2c(-c3cccc(C#N)c3F)nc(N)n3nc(NCc4ncccc4C)nc23)cc(C)n1 [Example 26, 3-(5-amino-8-(2-methoxy-6-methylpyridin-4-yl)-2-(((3-methylpyridin-2-yl)methyl)amino)-[1,2,4]triazolo[1,5-c]pyrimidin-7-yl)-2-fluorobenzonitrile]",10 to 100,≤ 10
"Cn1nc(-c2c(-c3cccc(C#N)c3)nc(N)n3nc(Cc4ccccn4)nc23)ccc1=O [Example 27, 3-(5-amino-8-(1-methyl-6-oxo-1,6-dihydropyridazin-3-yl)-2-(pyridin-2-ylmethyl)-[1,2,4]triazolo[1,5-c]pyrimidin-7-yl)benzonitrile]",≤ 10,≤ 10
"N#Cc1cccc(-c2nc(N)n3nc(OCc4ncccc4F)nc3c2-c2ccncn2)c1 [Example 28, 3-(5-amino-2-((3-fluoropyridin-2-yl)methoxy)-8-(pyrimidin-4-yl)-[1,2,4]triazolo[1,5-c]pyrimidin-7-yl)benzonitrile]",≤ 10,≤ 10
"Cn1cc(-c2c(-c3cccc(C#N)c3)nc(N)n3nc(OCc4ncccc4F)nc23)ccc1=O [Example 29, 3-(5-amino-2-((3-fluoropyridin-2-yl)methoxy)-8-(1-methyl-6-oxo-1,6-dihydropyridin-3-yl)-[1,2,4]triazolo[1,5-c]pyrimidin-7-yl)benzonitrile]",≤ 10,≤ 10
"Cn1nc(-c2c(-c3cccc(C#N)c3)nc(N)n3nc(OCc4ncccc4F)nc23)ccc1=O [Example 30, 3-(5-amino-2-((3-fluoropyridin-2-yl)methoxy)-8-(1-methyl-6-oxo-1,6-dihydropyridazin-3-yl)-[1,2,4]triazolo[1,5-c]pyrimidin-7-yl)benzonitrile]",≤ 10,≤ 10
"Cc1cc(-c2c(-c3cccc(C#N)c3)nc(N)n3nc(OCc4ncccc4F)nc23)cc(C)n1 [Example 32, 3-(5-amino-8-(2,6-dimethylpyridin-4-yl)-2-((3-fluoropyridin-2-yl)methoxy)-[1,2,4]triazolo[1,5-c]pyrimidin-7-yl)benzonitrile]",10 to 100,≤ 10
"COc1cc(-c2c(-c3cccc(C#N)c3)nc(N)n3nc(OCc4ncccc4F)nc23)cc(C)n1 [Example 33, 3-(5-amino-2-((3-fluoropyridin-2-yl)methoxy)-8-(2-methoxy-6-methylpyridin-4-yl)-[1,2,4]triazolo[1,5-c]pyrimidin-7-yl)benzonitrile]",≤ 10,≤ 10
"Cc1cccc(Nc2nc3c(-c4ccncn4)c(-c4cccc(C#N)c4)nc(N)n3n2)n1 [Example 40, 3-(5-amino-2-((6-methylpyridin-2-yl)amino)-8-(pyrimidin-4-yl)-[1,2,4]triazolo[1,5-c]pyrimidin-7-yl)benzonitrile]",≤ 10,≤ 10
"N#Cc1cccc(-c2nc(N)n3nc(COc4ccccn4)nc3c2-c2ccncn2)c1 [Example 41, 3-(5-amino-2-((pyridin-2-yloxy)methyl)-8-(pyrimidin-4-yl)-[1,2,4]triazolo[1,5-c]pyrimidin-7-yl)benzonitrile]",≤ 10,≤ 10
"N#Cc1cccc(-c2nc(N)n3nc(COc4ncccc4C#N)nc3c2-c2ccncn2)c1 [Example 42, 2-((5-amino-7-(3-cyanophenyl)-8-(pyrimidin-4-yl)-[1,2,4]triazolo[1,5-c]pyrimidin-2-yl)methoxy)nicotinonitrile]",≤ 10,≤ 10
"Cn1cc(-c2c(-c3cccc(C#N)c3)nc(N)n3nc(COc4ncccc4C#N)nc23)ccc1=O [Example 43, 2-((5-amino-7-(3-cyanophenyl)-8-(1-methyl-6-oxo-1,6-dihydropyridin-3-yl)-[1,2,4]triazolo[1,5-c]pyrimidin-2-yl)methoxy)nicotinonitrile]",≤ 10,≤ 10
"Cc1cc(-c2c(-c3cccc(C#N)c3)nc(N)n3nc(COc4ncccc4C#N)nc23)cc(C)n1 [Example 46, 2-((5-amino-7-(3-cyanophenyl)-8-(2,6-dimethylpyridin-4-yl)-[1,2,4]triazolo[1,5-c]pyrimidin-2-yl)methoxy)nicotinonitrile]",100 to 1000,≤ 10
"N#Cc1cccc(-c2nc(N)n3nc(Cn4nnc(-c5ccccn5)n4)nc3c2-c2ccncn2)c1 [Example 50, 3-(5-amino-2-((5-(pyridin-2-yl)-2H-tetrazol-2-yl)methyl)-8-(pyrimidin-4-yl)-[1,2,4]triazolo[1,5-c]pyrimidin-7-yl)benzonitrile]",≤ 10,≤ 10
"N#Cc1cccc(-c2nc(N)n3nc(Cn4nnnc4-c4ncccn4)nc3c2-c2ccncn2)c1 [Example 51, 3-(5-amino-2-((5-(pyrimidin-2-yl)-1H-tetrazol-1-yl)methyl)-8-(pyrimidin-4-yl)-[1,2,4]triazolo[1,5-c]pyrimidin-7-yl)benzonitrile]",≤ 10,≤ 10

# Further lines, results first:
EC50 [1] [nM],Ki (Adenosine A2A) [nM],SMILES
10 to 100,≤ 10,"CCn1cc(-c2c(-c3cccc(C#N)c3F)nc(N)n3nc(NCc4ncccc4C)nc23)ccc1=O [Example 24, 3-(5-amino-8-(1-ethyl-6-oxo-1,6-dihydropyridin-3-yl)-2-(((3-methylpyridin-2-yl)methyl)amino)-[1,2,4]triazolo[1,5-c]pyrimidin-7-yl)-2-fluorobenzonitrile]"
≤ 10,≤ 10,"N#Cc1cccc(-c2nc(N)n3nc(Nc4ccccn4)nc3c2-c2ccncn2)c1 [Example 34, 3-(5-amino-2-(pyridin-2-ylamino)-8-(pyrimidin-4-yl)-[1,2,4]triazolo[1,5-c]pyrimidin-7-yl)benzonitrile]"
10 to 100,≤ 10,"Cn1nc(-c2c(-c3cccc(C#N)c3)nc(N)n3nc(COc4ncccc4C#N)nc23)ccc1=O [Example 44, 2-((5-amino-7-(3-cyanophenyl)-8-(1-methyl-6-oxo-1,6-dihydropyridazin-3-yl)-[1,2,4]triazolo[1,5-c]pyrimidin-2-yl)methoxy)nicotinonitrile]"
10 to 100,≤ 10,"COc1cc(-c2c(-c3cccc(C#N)c3)nc(N)n3nc(COc4ncccc4C#N)nc23)cc(C)n1 [Example 47, 2-((5-amino-7-(3-cyanophenyl)-8-(2-methoxy-6-methylpyridin-4-yl)-[1,2,4]triazolo[1,5-c]pyrimidin-2-yl)methoxy)nicotinonitrile]"
≤ 10,≤ 10,"N#Cc1cccc(-c2nc(N)n3nc(Cn4nnnc4-c4ccncn4)nc3c2-c2ccncn2)c1 [Example 52, 3-(5-amino-8-(pyrimidin-4-yl)-2-((5-(pyrimidin-4-yl)-1H-tetrazol-1-yl)methyl)-[1,2,4]triazolo[1,5-c]pyrimidin-7-yl)benzonitrile]"
≤ 10,≤ 10,"N#Cc1cccc(-c2nc(N)n3nc(Cn4nnnc4-c4cccnc4)nc3c2-c2ccncn2)c1 [Example 53, 3-(5-amino-2-((5-(pyridin-3-yl)-1H-tetrazol-1-yl)methyl)-8-(pyrimidin-4-yl)-[1,2,4]triazolo[1,5-c]pyrimidin-7-yl)benzonitrile]"
≤ 10,≤ 10,"N#Cc1cccc(-c2nc(N)n3nc(Cn4nnnc4-c4ccncc4)nc3c2-c2ccncn2)c1 [Example 54, 3-(5-amino-2-((5-(pyridin-4-yl)-1H-tetrazol-1-yl)methyl)-8-(pyrimidin-4-yl)-[1,2,4]triazolo[1,5-c]pyrimidin-7-yl)benzonitrile]"
